Measured values: patent US20240316051A1, “A PHARMACEUTICAL COMBINATION AND USE THEREOF” (Ascentage Pharma (Suzhou) Co., Ltd., priority 2021, published 2024)
Blank lines part the entries; values can stand above or below the compound they belong to.

Assays:
[1] = biological target: T1, EED (1-441)-His protein (Homo sapiens, UniProt O75530); test: EED-H3K27Me3 peptide competition binding assay by AlphaScreen; settings: Table 4A, read-out: Alpha screen
T1 construct: 20 nM EED (1-441)-His protein
Procedure, shortened: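 Readout was AlphaScreen emission at 615 nm after 680 nm excitation, with 10 μg/ml final each of streptavidin donor and nickel chelate acceptor beads, 1 h at RT in the dark. Beforehand, compound met the His-tagged EED(1-441) for 15 min and then biotinylated H3K27Me3(19-33) peptide for 30 min; both were added as 20 nM solutions, buffer 25 mM HEPES pH 8, Tween-20, BSA. Percent activity left was fitted to give IC50.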

[2] = system: human B cell lymphoma cell KARPAS422; test: Cell proliferation (WST-8), KARPAS422, 7 days; assay type: cell-based; settings: KARPAS-422, 168 h, WST-8, Table 4A, read-out: Karpas Cell line
Method: Analysis of Cell Proliferation:
To assess the effect of PRC2 inhibition on cell growth, cells were seeded in 96-well cell culture plates at a density of 2 000-3 000 cells/well in 200 μL of culture medium, and treated with serially diluted compounds for 7 days at 37° C. in an atmosphere of 5% CO2. Cell growth was evaluated by a […] WST-8 assay (Dojindo Molecular Technologies) using a Tecan Infinite M1000 multimode microplate reader (Tecan, Morrisville, NC). The WST-8 reagent was added to the plate, incubated for 1-4 h, and read at 450 nm. The readings were normalized to the DMSO-treated cells, and the IC50 was calculated by nonlinear regression analysis using GraphPad Prism 6 software

[3] = system: BAP1 mut mesothelioma PDX model; test: BAP1 mut mesothelioma PDX model (Examples 15-17); assay type: in vivo, mice; settings: orally, 28 days
Method: (§1) A subcutaneous xenograft tumor model of human tumor immunodeficient mice was established by cell inoculation: tumor cells in logarithmic growth phase were collected, counted, resuspended in 1×PBS, and the cell suspension concentration was adjusted to 2.5-5×10^7/mL. The tumor cells were inoculated subcutaneously in the right side of immunodeficient mice with a 1 ml syringe ([…]), 5-10×10^6/0.2 mL/mouse. All animal experiments were strictly in accordance with the specifications for the use and management of experimental animals in GenePharma Co., Ltd. and Suzhou Ascentage Pharma Co., Ltd. The calculation of relevant parameters refers to the Chinese NMPA “Guidelines for Non-Clinical Research Techniques of Cytotoxic Anti-tumor Drugs”.
(§2) Animal body weight and tumor size were measured twice weekly during the experiment. The state of the animal and the presence or absence of death were observed every day. The growth of tumor and the effects of treatment on normal behavior of animals were monitored routinely, specifically involving experimental animal activity, feeding and drinking, weight gain or loss, eyes, clothing hair and other abnormalities. The deaths and clinical symptoms observed during the experiment were recorded in the raw data. All operations for administration and measurement of mouse body weight and tumor volume were performed in a clean bench. According to the requirements of the experimental protocol, after the end of the last administration, plasma and tumor tissues were collected, weighed and photographed. The plasma and tumor samples were frozen at −80° C. for ready-to-use.
(§3) Tumor volume (TV) is calculated as: TV=a×b^2/2, wherein a and b represent the length and width of the tumor to be measured, respectively.
(§4) The relative tumor volume (RTV) is calculated as: RTV=Vt/V1, wherein V1 is the tumor volume at the start of grouping and administration, and Vt is the tumor volume measured on the t day after administration.
(§5) The evaluation index of anti-tumor activity is the relative tumor proliferation rate T/C (%), and the calculation formula thereof is: relative tumor proliferation rate T/C (%)=(TRTV/CRTV)×100%, TRTV is the RTV of treatment group, CRTV is the RTV of solvent control group.
(§6) A dose of drug is considered to be severely toxic if the body weight of mouse is reduced by more than 20% or the number of drug-related deaths exceeds 20%.
(§7) According to the description by Clarke R., Issues in experimental design and endpoint analysis in the study of experimental cytotoxic agents in vivo in breast cancer and other models [J]. Breast Cancer Research & Treatment, 1997, 46(2-3): 255-278, synergy analysis was evaluated using the following formula: synergy factor=((A/C)×(B/C))/(AB/C); A=RTV value of drug A alone group; B=RTV value of drug B alone group; C=RTV value of the solvent control group, and AB=RTV value of the A and B combination group.
In this experiment, a BAP1 mut mesothelioma PDX model (Lide Biotech) was established to evaluate the anti-tumor effect of Compound 73. The dosing regimen was as follows: • Compound 73: 50 mg/kg, orally, once per day, for a total of 28 days; • Compound 73: 100 mg/kg, orally, once per day, for a total of 28 days;
In this experiment, a BAP1 mut mesothelioma PDX model (Lide Biotech) was established to evaluate the anti-tumor effect of Compound 73 in combination with Compound A-1. […]

[4] = system: NCI-H226 (BAP1mut, CDKN2Adel, FGFR high) xenograft; test: NCI-H226 xenograft model (Examples 18-19); assay type: in vivo, mice; settings: Compound 2-5 50 mg/kg, orally, once per day, 35 days
Method: as §1
as §2, with “All operations for administration and measurement of mouse body weight and tumor volume were performed in a clean bench. According to the requirements of the experimental protocol, after the end of the last administration, plasma and tumor tissues were collected, weighed and photographed.” left out
as §3
(§8) The relative tumor volume (RTV) is calculated as: RTV=Vt/V1, wherein V1 is the tumor volume at the start of grouping and administration, and Vt is the tumor volume measured on the t day after administration. […]
Use of mRECIST (Gao et al., 2015) measured tumor responses included stable disease (SD), partial tumor regression (PR), and complete regression (CR), determined by comparing tumor volume change at day t to its baseline: tumor volume change (%)=(Vt−V1)/V1. […] For each time t, the average of tumor volume changes from t=1 to t was also calculated. […] Body weight of animals were monitored simultaneously. […]

[5] = system: NCI-H28(X1) (BAP1mut, UHRF1high, TP53WT, CDKN2Adel, FGFRlow, NF2WT) subcutaneous mesothelioma xenograft; test: NCI-H28(X1) subcutaneous mesothelioma xenograft model (Example 23); assay type: in vivo, mice; settings: Compound C 50 mg/kg orally every other day, Compound 73 100 mg/kg orally once per day, 28 days, alone or combined
Method: as §1, §2, §3, §4
The evaluation index of anti-tumor activity is the relative tumor proliferation rate T/C (%), and the calculation formula thereof is: relative tumor proliferation rate T/C (%)=(TRTV/CRTV)×100%, TRTV is the RTV of treatment group, CRTV is the RTV of solvent control group. […]
as §7, with “group. […]” for “group.”

[6] = system: H226 (BAP1mut, UHRF1high, TP53WT, CDKN2Adel, FGFRhigh) subcutaneous mesothelioma xenograft; test: H226 subcutaneous mesothelioma xenograft model (Example 22); assay type: in vivo, mice
Method: as §1, §2, §3, §4, §5
(§9) Change of body weight (%)=(measured body weight-body weight at the start of grouping)/body weight at the start of grouping×100%.
as §6
In this experiment, H226 (BAP1mut, UHRF1high, TP53WT, CDKN2Adel, FGFRhigh) subcutaneous mesothelioma xenograft model was established to evaluate the anti-tumor effect of Compound 73 in combination with Compound C. The dosing regimen was as follows: • Compound C: 50 mg/kg, orally, every other day, for a total of 39 days; • Compound 73: 50 mg/kg, orally, once per day, for a total of 39 days; • Compound 73: 100 mg/kg, orally, once per day, for a total of 39 days.

[7] = system: LnCap prostate xenograft; test: Subcutaneous LnCap prostate xenograft model (Example 25); assay type: in vivo, mice; settings: day 17
Method: as §1, §2, §3, §4, §5, §6, §7
(§10) In this experiment, subcutaneous LnCap prostate xenograft model was established to evaluate the anti-tumor effect of Compound 73 in combination with Compound C. The dosing regimen was as follows: • Compound C: 100 mg/kg, orally, every other day, for day 1-day 9; 50 mg/kg, orally, every other day, for day 10-day 28; • Compound 73: 100 mg/kg, orally, once per day, for a total of 28 days;
(§11) The dosing regimen of each drug in the dosing regimen for the combination is the same as the dosing regimen for the single drug, for a total of 28 days.

[8] = system: malignant pleural mesothelioma (MPM) PDX model (FGFR1high; BAP1mut); test: Subcutaneous malignant pleural mesothelioma (MPM) PDX model (Example 20); assay type: in vivo, mice; settings: Compound 73 100 mg/kg, Compound C 50 mg/kg, each orally every other day, 76 days; alone or combined
Method: as §1, §2, §3, §8
Change of body weight (%)=(measured body weight-body weight at the start of grouping)/body weight at the start of grouping×100%. […]
as §7, with “group. […]” for “group.”

[9] = system: BAP1 mut mesothelioma PDX model; test: Subcutaneous BAP1 mut mesothelioma PDX model (Example 21); assay type: in vivo, mice; settings: Compound 73 100 mg/kg orally once per day, Compound C 50 mg/kg orally every other day, 36 days; alone or combined
Method: as §1, §2, §3, §4, §5, §9, §6
In this experiment, subcutaneous BAP1 mut mesothelioma PDX model was established (Lide Biotech) to evaluate the anti-tumor effect of Compound 73 in combination with Compound C. […]

[10] = system: 22RV1 prostate xenograft; test: Subcutaneous 22RV1 prostate xenograft model (Example 24); assay type: in vivo, mice
Method: as §1, §2, §3, §4, §5, §9, §6, §7
as §10, with “22RV1” for “LnCap”, “a total of 28 days;” for “day 1-day 9; 50 mg/kg, orally, every other day, for day 10-day 28;”
as §11

T1 sequence (O75530 whole entry): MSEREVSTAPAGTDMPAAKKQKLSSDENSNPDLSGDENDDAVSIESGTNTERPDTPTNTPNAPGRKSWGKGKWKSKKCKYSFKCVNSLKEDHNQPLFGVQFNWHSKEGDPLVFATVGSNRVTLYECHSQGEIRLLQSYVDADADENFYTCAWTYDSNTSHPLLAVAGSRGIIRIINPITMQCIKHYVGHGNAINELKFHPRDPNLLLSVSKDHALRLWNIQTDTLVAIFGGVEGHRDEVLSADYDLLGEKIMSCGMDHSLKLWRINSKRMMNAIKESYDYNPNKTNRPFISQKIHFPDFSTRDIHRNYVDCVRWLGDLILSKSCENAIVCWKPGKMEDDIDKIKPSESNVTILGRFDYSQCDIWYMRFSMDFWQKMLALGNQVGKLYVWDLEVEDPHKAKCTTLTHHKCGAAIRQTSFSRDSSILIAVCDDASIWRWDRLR

IC50 [1]: 1.61 nM
IC50 [2]: 15.3 nM
SMILES: O=C1c2ncn3c(NCc4c(F)ccc5c4CCO5)ncc(c23)-c2ccc(F)cc2CN1CCF [Compound 79, 7-fluoro-12-(((5-fluoro-2,3-dihydrobenzofuran-4-yl)methyl)amino)-4-(2-fluoroethyl)-4,5-dihydro-3H-2,4,11,12a-tetraazabenzo[4,5]cycloocta [1,2,3-cd]inden-3-one]

SMILES: Cc1ccc(C(=O)Nc2ccc(CN3CCN(C)CC3)c(C(F)(F)F)c2)cc1C#Cc1cnc2[nH]ncc2c1 [Compound A-1]
T/C (%) ([3]; Compound A-1 10 mg/kg, every other day, end of study): 74.8%

SMILES: Cc1cc(Nc2ncc(Cl)c(Nc3ccccc3S(=O)(=O)C(C)C)n2)c(OC(C)C)cc1C1=CCN(C2CCOCC2)CC1 [Compound 2-5, 5-chloro-N^2-(2-isopropoxy-5-methyl-4-(1-(tetrahydro-2H-pyran-4-yl)-1,2,3,6-tetrahydropyridin-4-yl)phenyl)-N^4-(2-(isopropylsulfonyl)phenyl)pyrimidine-2,4-diamine]
inhibition of tumor growth (in words) ([3]; Compound 2-5 50 mg/kg, once per day): not effective in inhibiting tumor growth
inhibition of tumor growth (in words) [4]: almost not effective in inhibiting tumor growth

SMILES: CCN1[C@@H](C(=O)NC23CCC(C(=O)O)(CC2)CC3)[C@H](c2cccc(Cl)c2F)[C@]2(C(=O)Nc3cc(Cl)ccc32)C12CCCCC2 [Compound C]
T/C (%) @ D 29 [5]: 92.16%
RTV@ D 29 ([5]; mean ± SEM): 14.06 ± 1.22
T/C (%) @ D 39 ([6]; Compound C 50 mg/kg orally every other day, Compound 73 50 mg/kg orally once per day, alone or combined): 49.45%
RTV @ D 39 ([6]; Compound C 50 mg/kg orally every other day, Compound 73 50 mg/kg orally once per day, alone or combined, mean ± SEM): 3.94 ± 0.69
antitumor activity (in words) ([6]; single agents, 39 days (FIG. 10)): moderate antitumor activity
RTV@ D 17 ([7]; LnCap xenograft, Compound 73 100 mg/kg orally once per day, Compound C 100 mg/kg/50 mg/kg orally every other day): 2.57 ± 0.24
T/C(%) @ D 17 ([7]; LnCap xenograft, Compound 73 100 mg/kg, Compound C 100 mg/kg/50 mg/kg): 57.46%
T/C value ([7]; Compound C 100 mg/kg every other day day 1-9 then 50 mg/kg day 10-28, Compound 73 100 mg/kg once per day, orally, alone or combined): 57.46%
RTV @ D 76 [8]: 3.47
T/C (%) @ D 76 [8]: 60%
RTV @ D 36 [9]: 8.04
T/C (%) @ D 36 [9]: 55.17%
RTV@ D 26 ([10]; 22RV1 xenograft, day 26, Compound 73 100 mg/kg orally once per day, Compound C 50 mg/kg (table) orally every other day): 14.81 ± 4.35
T/C(%) @ D 26 ([10]; 22RV1 xenograft, day 26, Compound 73 100 mg/kg, Compound C 50 mg/kg (table)): 93.39%
RTV@ D 29 ([10]; 22RV1 xenograft, day 29): 18.54 ± 7.96
T/C value ([10]; day 26, Compound C 100 mg/kg orally every other day, Compound 73 100 mg/kg orally once per day, alone or combined): 93.39%
